Measured values from patent publication US5114936A, “6,7-dihydro-3-phenyl-1,2-benzisoxazol-4(5H)-ones and -ols, compositions and pharmaceutical use” (Hoechst-Roussel Pharmaceuticals Incorporated, priority 1991, dated 1992).
Where a name gives a salt, the structure may show the parent alone.

These compounds were tested on apomorphine climbing (assay: Climbing Mice Assay (antagonism of apomorphine-induced climbing)). Conditions: Mus musculus; ip; apomorphine 1.5 mg/kg subcutaneously.
Assay type: in vivo, mice (CK-1 male mice)
Experimental: Antipsychotic activity is determined in the Climbing Mice Assay by a method similar to that described by P. Protais, et al., Psychopharmacol., 50, 1 (1976) and B. Costall, Eur. J. Pharmacol., 50, 39 (1978).
The subject CK-1 male mice (23-27 grams) are group-housed under standard laboratory conditions. The mice are individually placed in wire mesh stick cages (4"×4"×10") and are allowed one hour for adaptation and exploration of the new environment. Then apomorphine is injected subcutaneously at 1.5 mg/kg, a dose causing climbing in all subjects for 30 minutes.
Compounds to be tested for antipsychotic activity are injected intraperitoneally or given orally at various time intervals, e.g. 30 minutes, 60 minutes, etc. prior to the apomorphine challenge at a screening dose of 10-60 mg/kg.
For evaluation of climbing, 3 readings are taken at 10, 20 and 30 minutes after apomorphine administration according to the following scale:
4 paws on bottom (no climbing)
2 paws on the wall (rearing)
4 paws on the wall (full climb)
Mice consistently climbing before the injection of apomorphine will be discarded.
With full-developed apomorphine climbing, the animals are hanging on to the cage walls, rather motionless, over longer periods of time. By contrast, climbs due to mere motor stimulation usually only last a few seconds.
The climbing scores are individually totaled (maximal score: 6 per mouse over 3 readings) and the total score of the control group (vehicle intraperitoneally-apomorphine subcutaneously) is set to 100%. ED50 values with 95% confidence limits, calculated by a linear regression analysis, of some of the compounds of the instant invention as well as a standard antipsychotic agent are presented in Table I.

Point of comparison: `O=C(c1ccc(F)cc1)C1CCN(CCCC2CCc3onc(-c4cccc(F)c4)c3C2=O)CC1` (stereo not drawn) [Example 26, 6,7-Dihydro-5-[3-(4-(4-fluorobenzoyl)-1-piperidinyl)-propyl]-3-(3-fluorophenyl)-1,2-benzisoxazol-4(5H)-one hydrochloride], ED50 5.7 mg/kg. Against it:
- Cl.O=C1c2c(-c3ccccc3)noc2CCC1CCCN1CCC(c2ccc(F)cc2)CC1 (stereo not drawn) [6,7-dihydro-5-[3-(4-(4-fluorophenyl)-1-piperidinyl)-propyl]-3-phenyl-1,2-benzisoxazol-4(5H)-one hydrochloride] — within 1.5-fold, 6.36 mg/kg
- COc1ccccc1N1CCN(CCCC2CCc3onc(-c4ccccc4)c3C2=O)CC1 (stereo not drawn) [Example 14, 6,7-Dihydro-5-[3-(4-(2-methoxyphenyl)-1-piperazinyl)-propyl]-3-phenyl-1,2-benzisoxazol-4(5H)-one dihydrochloride] — 2.6-fold higher, 15 mg/kg
- Cl.O=C(c1ccc(F)cc1)C1CCN(CCCC2CCc3onc(-c4ccccc4F)c3C2=O)CC1 (stereo not drawn) [Example 19, 6,7-Dihydro-5-[3-(4-(4-fluorobenzoyl)-1-piperidinyl)-propyl]-3-(2-fluorophenyl)-1,2-benzisoxazol-4(5H)-one hydrochloride] — 2-fold lower, 2.9 mg/kg
- CN1CCN(C2=Nc3cc(Cl)ccc3Nc3ccccc32)CC1 [clozapine, reference compound] — 1.6-fold higher, 9 mg/kg
- O=C(c1ccc(F)cc1)C1CCN(CCCC2CCc3onc(-c4ccc(F)cc4)c3C2=O)CC1 (stereo not drawn) [Example 20, 6,7-Dihydro-5-[3-(4-(4-fluorobenzoyl)-1-piperidinyl)-propyl]-3-(4-fluorophenyl)-1,2-benzisoxazol-4(5H)-one hydrochloride] — within 1.5-fold, 6.2 mg/kg

What follows are compounds tested on phenyl-p-quinone writhing (assay: phenyl-p-quinone writhing assay (analgesia)). Conditions: Mus musculus, sc; s.c; read-out: ED50 Inhibition of Writhing.
Assay type: in vivo, mice
From the text: Exptl. Biol. Med. 95, 729 (1957)]

Point of comparison: `O=C(c1ccc(F)cc1)C1CCN(CCCC2CCc3onc(-c4ccccc4)c3C2=O)CC1` (stereo not drawn) [Example 15, 6,7-Dihydro-5-[3-(4-(4-fluorobenzoyl)-1-piperidinyl)-propyl]-3-phenyl-1,2-benzisoxazol-4(5H)-one hydrochloride], ED50 3.99 mg/kg. Against it:
- COc1ccccc1N1CCN(CCCC2CCc3onc(-c4ccccc4)c3C2=O)CC1 (stereo not drawn) [Example 14, 6,7-Dihydro-5-[3-(4-(2-methoxyphenyl)-1-piperazinyl)-propyl]-3-phenyl-1,2-benzisoxazol-4(5H)-one dihydrochloride] — within 1.5-fold, 5.18 mg/kg
- CCC(=O)O[C@](Cc1ccccc1)(c1ccccc1)[C@H](C)CN(C)C [propoxyphene, reference compound] — within 1.5-fold, 3.9 mg/kg
